Measured values from patent US9642861B2, “Methods of treating oral mucositis” (priority 2006, dated 2017).

Assay: ACT-03 (Example 2): weights and survival
Assay type: in vivo, Syrian Golden Hamsters
Conditions: for Survival (animal status in score table): individual animal, by day 6
From the text: All animals were weighed daily and their survival recorded, in order to assess possible differences in animal weight among treatment groups as an indication for mucositis severity and/or possible toxicity resulting from the treatments.
All seventy-two (72) male Syrian Golden Hamsters were given an acute radiation dose of 40 Gy directed to their left buccal cheek pouch. This was accomplished by anesthetizing the animals and everting the left buccal pouch, while protecting the rest of the animal with a lead shield. Test materials were given either topically or by ip injection twice daily as detailed in Table 5. Mucositis was evaluated clinically starting on day 6, and continuing on alternate days until day 28. The study timeline is depicted in FIG. 7. Dose levels were determined based on the results of a previous acute toxicity study (data not published), and in the prior mucositis study of Example 1, shown in Table 5.
Male LVG Syrian Golden Hamsters (Charles River Laboratories), aged 5 to 6 weeks, with average body weight of […] at study commencement, were used. Animals were individually numbered using an ear punch and housed in small groups of approximately 8 animals per cage. Animals were acclimatized prior to study commencement. During this period of 3 days, the animals were observed daily in order to reject animals that presented in poor condition.
The significance of these differences was evaluated by calculating the mean area under the curve for the percentage weight gain for each animal and comparing the groups using a One-Way ANOVA test. There were significant differences between the vehicle control group and the group treated with M40403 at 30 mg/kg/dose once daily from day −1 to day 3 (P=0.039), he group treated with M40403 at 3 mg/kg/dose twice daily from day −1 to day 3 (P=0.040), the group treated with M40403 at 10 mg/kg/dose twice daily from day −1 to day 3 (0.018), the group treated with M40403 at 30 mg/kg/dose twice daily from day −1 to day 3 (P<0.001), the group treated with M40403 at 30 mg/kg/dose once daily from day 0 to day 3 (P=0.009) and the group treated with M40403 at 30 mg/kg/dose twice daily from day 0 to day 3 (P=0.002).

[Cl-].[Cl-].[Mn+2].c1cc2nc(c1)CN[C@@H]1CCCC[C@H]1NCCN[C@@H]1CCCC[C@H]1NC2 [M40403]
deaths during the study, all on the day of radiation (Day 0) (30 mg/kg once daily day 0 to 3): Two
deaths during the study, all on the day of radiation (Day 0) (30 mg/kg once daily day −1 to 3): Two
deaths during the study, all on the day of radiation (Day 0) (30 mg/kg once daily on day 0 and day 7 (so in the source)): One
deaths during the study, all on the day of radiation (Day 0) (30 mg/kg twice daily day −1 to 3): Two
survival status noted in Animal Weights table (first study, group 9 (30 mg/kg/dose twice daily on day 0 and on day 7), animal 70, day 0): dead
Survival (animal status in score table) (group 2): dead
Survival (animal status in score table) (group 5): dead
Survival (animal status in score table) (group 6): dead
toxicity based on observations of body weight (hamster, in vivo, ip): appear to show some toxicity
P, One-Way ANOVA on mean AUC of percentage weight gain v vehicle control (hamster, in vivo, ip, 3 mg/kg): 0.040
average weight gain, % of starting weight during the study (day 28) (hamster, in vivo, ip, 3 mg/kg): 59.3%
P, One-Way ANOVA on mean AUC of percentage weight gain v vehicle control (hamster, in vivo, ip, 10 mg/kg): 0.018
average weight gain, % of starting weight during the study (day 28) (hamster, in vivo, ip, 10 mg/kg): 56.2%
statistically significant reduction in growth rate v control (hamster, in vivo, ip, 30 mg/kg): did not exhibit some statistically significant reductions in growth rate
Survival (animal recorded dead in weight table) (second study, group 6, animal 45 on day 0, animal 46 on day 1): dead
